Patent US8916599B2, “1H-benz imidazole-5-carboxamides as anti-inflammatory agents” (Orexo AB, priority 2008, dated 2014)

Target: T1, recombinant human mPGES-1 (Homo sapiens, UniProt O14684)
T1 construct: made in house; host or cells: Rosetta E. coli (microsomal/membrane fraction)
T1 sequence (O14684 1-152): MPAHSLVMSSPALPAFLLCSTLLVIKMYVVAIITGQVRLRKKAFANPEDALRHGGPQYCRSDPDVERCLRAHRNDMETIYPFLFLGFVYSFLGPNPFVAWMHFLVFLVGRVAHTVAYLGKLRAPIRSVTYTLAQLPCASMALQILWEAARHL
Assay: mPGES-1 inhibition test (microsomes, PGH2 substrate, HTRF detection of PGE2)
Type: biochemical
Settings: for inhibition at 10 µM: inhibition of mPGES-1 at 10 μM
Outline: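 Microsomes from E. coli Rosetta expressing the enzyme, in 0.1 M KPi pH 7.4 with 2.5 mM GSH, were preincubated 25 min at room temperature with inhibitor in DMSO. PGH2 was added, the reaction stopped after one minute with acidified FeCl2, and PGE2 quantified by HTRF after 750-fold dilution.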

Compound	inhibition at 1 µM (inhibition of mPGES-1 at 1 μM (marked in cell))	inhibition at 10 µM
COc1cc2[nH]c(Nc3c(Cl)ccc(C)c3F)nc2cc1C(=O)NC1CCCCC1 [Example 628, 2-(6-Chloro-2-fluoro-3-methyl-phenylamino)-6-methoxy-N-cyclohexyl-1H-benzimidazole-5-carboxamide]	98%	–
O=C(NC1CCC2(CC1)CC2)c1cc2nc(Nc3c(Cl)cccc3Cl)[nH]c2cc1F [Example 387, 2-(2,6-Dichlorophenylamino)-6-fluoro-N-(spiro[2.5]octan-6-yl)-1H-benzimidazole-5-carboxamide]	–	100%
O=C(Nc1cc(Cl)ccn1)c1ccc2c(c1)nc(Nc1c(Cl)cccc1Cl)n2CCC(=O)N1CCOCC1 [Example 264, 2-(2,6-Dichloro-phenylamino)-1-(3-morpholin-4-yl-3-oxo-propyl)-1H-benzimidazole-5-carboxylic acid (4-chloro-pyridin-2-yl)-amide]	–	90%
O=C(Nc1nc2ccccc2[nH]1)c1ccc2[nH]c(Nc3c(Cl)cccc3Cl)nc2c1 [Example 80, 2-(2,6-Dichloro-phenylamino)-1H-benzimidazole-5-carboxylic acid (benzimidazol-2-yl)-amide]	–	92%
CC(C)(C)[C@H]1CC[C@@H](NC(=O)c2cc3nc(Nc4c(Cl)cccc4Cl)[nH]c3cc2F)CC1 [Example 374, N-((1s,4s)-4-tert.-Butylcyclohexyl)-2-(2,6-dichlorophenylamino)-6-fluoro-1H-benzimidazole-5-carboxamide]	–	100%
Cn1c(Nc2c(Cl)cccc2Cl)nc2cc(C(=O)NCCCC3CC3)c(F)cc21 [Example 398, N-(3-Cyclopropylpropyl)-2-(2,6-dichlorophenylamino)-6-fluoro-1-methyl-1H-benzimidazole-5-carboxamide]	–	96%
Cn1c(Nc2c(Cl)cccc2Cl)nc2cc(C(=O)NC3CCCCC3)c(F)cc21 [Example 159, 2-(2,6-Dichloro-phenylamino)-6-fluoro-1-methyl-1H-benzimidazole-5-carboxylic acid cyclohexylamide]	–	98%
O=C(Nc1ccc(Br)cc1)c1cc2nc(Nc3c(F)ccc(Cl)c3Cl)[nH]c2cc1OCC(F)(F)F [Example 588, N-(4-Bromo-phenyl)-2-(2,3-dichloro-6-fluoro-phenylamino)-6-(2,2,2-trifluoroethoxy)-1H-benzimidazole-5-carboxamide]	–	100%
Cn1c(Nc2c(Cl)cc(F)cc2Cl)nc2cc(C(=O)N[C@H]3CC[C@H](C(F)(F)F)CC3)ccc21 [Example 432, 2-(2,6-Dichloro-4-fluorophenylamino)-1-methyl-N-((1R,4R)-4-trifluoromethyl-cyclohexyl)-1H-benzimidazole-5-carboxamide]	–	100%
Cc1cnc(NC(=O)c2cc3nc(Nc4c(Cl)cccc4Cl)n(C)c3cc2F)cc1C [Example 421, 2-(2,6-Dichlorophenylamino)-N-(4,5-dimethylpyridin-2-yl)-6-fluoro-1-methyl-1H-benzimidazole-5-carboxamide]	–	99%
O=C(N[C@H]1CC[C@@H](C(F)(F)F)CC1)c1cc2nc(Nc3c(Cl)cccc3Cl)[nH]c2cc1F [Example 169, 2-(2,6-Dichloro-phenylamino)-6-fluoro-1H-benzimidazole-5-carboxylic acid (cis-4-trifluoromethyl-cyclohexyl)-amide]	–	94%
O=C(N[C@H]1CC[C@H](C(F)(F)F)CC1)c1ccc2[nH]c(Nc3c(Cl)cccc3Cl)nc2c1 [Example 161, 2-(2,6-Dichloro-phenylamino)-1H-benzimidazole-5-carboxylic acid (trans-4-trifluoromethyl-cyclohexyl)-amide]	–	98%
O=C(NC1CCC(C(F)(F)F)CC1)c1ccc2[nH]c(Nc3c(Cl)cccc3Cl)nc2c1 (stereo not shown) [Example 230, 2-(2,6-Dichloro-phenylamino)-1H-benzimidazole-5-carboxylic acid (4-trifluoromethyl-cyclohexyl)-amide]	–	99%
CC(C)Oc1cc2[nH]c(Nc3c(Cl)ccc(Cl)c3F)nc2cc1C(=O)Nc1ccc(Br)cc1 [Example 610, 2-(3,6-Dichloro-2-fluoro-phenylamino)-N-(4-bromo-phenyl)-6-isopropoxy-1H-benzimidazole-5-carboxamide]	–	87%
Cn1c(Nc2c(Cl)cccc2Cl)nc2cc(C(=O)NC3CCC(C(F)(F)F)CC3)ccc21 (stereo not shown) [Example 256, 2-(2,6-Dichloro-phenylamino)-1-methyl-1H-benzimidazole-5-carboxylic acid (4-trifluoromethyl-cyclohexyl)-amide]	–	100%
CC(C)[C@H]1CC[C@H](NC(=O)c2cc3nc(Nc4c(Cl)cccc4Cl)[nH]c3cc2F)CC1 [Example 375]	–	100%
O=C(NCc1ccc(Cl)cc1)c1ccc2[nH]c(Nc3c(Cl)cccc3Cl)nc2c1 [Example 309, 2-(2,6-Dichloro-phenylamino)-1H-benzimidazole-5-carboxylic acid 4-chloro-benzylamide]	–	98%
Cn1c(Nc2c(Cl)cccc2Cl)nc2cc(C(=O)NC3CCCCC3C(F)(F)F)ccc21 (stereo not shown) [Example 254, 2-(2,6-Dichloro-phenylamino)-1-methyl-1H-benzimidazole-5-carboxylic acid (2-trifluoromethyl-cyclohexyl)-amide]	–	100%
CO[C@H]1CC[C@H](NC(=O)c2ccc3[nH]c(Nc4c(Cl)cccc4Cl)nc3c2)CC1 [Example 216, 2-(2,6-Dichloro-phenylamino)-1H-benzimidazole-5-carboxylic acid ((1R,4R)-4-methoxy-cyclohexyl)-amide]	–	64%
Cn1c(Nc2cc(S(C)(=O)=O)ccc2Cl)nc2cc(C(=O)Nc3ccc(Br)cc3)ccc21 [Example 526, N-(4-Bromophenyl)-2-(2-chloro-5-(methylsulfonyl)phenylamino)-1-methyl-1H-benzimidazole-5-carboxamide]	–	93%
O=C(Nc1ccc(Cl)c(F)c1)c1cc2nc(Nc3c(Cl)cccc3Cl)[nH]c2cc1Cl [Example 55, 2-(2,6-Dichloro-phenylamino)-6-chloro-1H-benzimidazol-5-carboxylic acid (4-chloro-3-fluoro-phenyl)-amide]	–	93%
CCCCCNC(=O)c1cc2nc(Nc3c(Cl)cccc3Cl)n(C)c2cc1F [Example 391, 2-(2,6-Dichlorophenylamino)-6-fluoro-1-methyl-N-pentyl-1H-benzimidazole-5-carboxamide]	–	100%
O=C(Nc1ccccc1)c1ccc2[nH]c(Nc3c(F)cccc3Cl)nc2c1 [Example 19, 2-(2-Chloro-6-fluoro-phenylamino)-1H-benzimidazole-5-carboxylic acid-phenylamide]	–	91%
Cc1nc(NC(=O)c2ccc3c(c2)nc(Nc2c(Cl)cccc2Cl)n3C)cc2c1CCCC2 [Example 139, 2-(2,6-Dichloro-phenylamino)-1-methyl-1H-benzimidazole-5-carboxylic acid (1-methyl-5,6,7,8-tetrahydro-isoquinolin-3-yl)-amide]	–	98%
CN(C)c1cccc(F)c1Nc1nc2cc(C(=O)Nc3ccc(Br)cc3)ccc2n1C [Example 551, N-(4-Bromophenyl)-2-(2-dimethylamino-6-fluorophenylamino)-1-methyl-1H-benzimidazole-5-carboxamide]	–	94%
